Assay results from publication PMC4104973 (IUCrJ, 2013).

How the values were obtained:
WcbI [1] = target: T1, WcbI (Burkholderia pseudomallei, UniProt Q63R74); details: covalent (disulfide to Cys14); co-crystallized with 200 µM acetyl-CoA; native structure 4BQO (1.56 Å) holds non-covalent CoA carried from E. coli
WcbI [2] = target: T1, WcbI; experiment: biochemical
WcbI [3] = target: T1, WcbI; details: absolute Tm at 1 mM ligand (no ligand 37.4 ± 0.4 °C); 10 mM HEPES pH 7.0, 150 mM NaCl

T1 sequence (Q63R74 1-312 limits assumed): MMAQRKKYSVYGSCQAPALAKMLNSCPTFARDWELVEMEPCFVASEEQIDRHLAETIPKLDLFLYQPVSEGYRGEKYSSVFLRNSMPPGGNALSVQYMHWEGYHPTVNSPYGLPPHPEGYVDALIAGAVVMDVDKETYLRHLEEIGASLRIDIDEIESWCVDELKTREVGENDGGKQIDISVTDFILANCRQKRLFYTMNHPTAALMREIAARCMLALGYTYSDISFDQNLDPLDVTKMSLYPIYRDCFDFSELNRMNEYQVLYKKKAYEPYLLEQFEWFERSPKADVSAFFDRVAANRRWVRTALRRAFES

Structure (SMILES)	X-ray crystal structure, 1.38 Å (WcbI [1])	Kd (WcbI [2]) [µM]	T m ± SD ^† (°C) (WcbI [3])
CC(C)(COP(=O)(O)OP(=O)(O)OC[C@H]1O[C@@H](n2cnc3c(N)ncnc32)[C@H](O)[C@@H]1OP(=O)(O)O)[C@@H](O)C(=O)NCCC(=O)NCCS [coenzyme A]	4bqn for WcbI covalently bound to coenzyme A and 4bqo for the native structure	58 ± 2	46.2 ± 0.2
CC(=O)SCCNC(=O)CCNC(=O)[C@H](O)C(C)(C)COP(=O)(O)OP(=O)(O)OC[C@H]1O[C@@H](n2cnc3c(N)ncnc32)[C@H](O)[C@@H]1OP(=O)(O)O [acetyl-CoA]			45.6 ± 0.5
